Assay: Solubility measurement of charge control agent in methanol
Format: physicochemical
Conditions: stirred 1 hour at 50° C., cooled to room temperature, 0.1 μm-filter, absorbance vs 20 ppm standard
Method: The solubility of the charge control agent may be measured in the following manner.
<Solubility measurement of charge control agent>
2 g of a charge control agent is weighed and placed in a 300 ml Erlenmeyer flask to which 100 ml of methanol is added. The system is heated to 50° C. under stirring and the stirring is further continued for 1 hour (when all the charge control agent is dissolved, the charge control agent is further added successively at an increment of 2 g each under continued stirring). Then, the system is cooled to room temperature and the insoluble charge control agent is removed by a 0.1 μm-filter to measure the absorbance (A) of the solution at a maximum absorption wavelength by using a spectrophotometer.
wherein I denotes a transmitted light intensity through a solution, I0 denotes a transmitted light intensity through a solvent (=methanol), ε0 denotes an absorption coefficient, C denotes the concentration of the charge control agent, and d denotes the thickness of the solution for the absorbance measurement.

| Structure (SMILES) | SMeOH (solubility in methanol) |
| --- | --- |
| Cc1ccccc1NC(=O)c1cc2ccccc2c2c1[O][Fe]1([O]c3cc(Cl)c([N+](=O)[O-])cc3/N=N/2)[O]c2cc(Cl)c([N+](=O)[O-])cc2/N=N/c2c(c(C(=O)Nc3ccccc3C)cc3ccccc23)[O]1 [Complex (5)] | SMeOH = 0.65 g/100 ml) |
| O=C(Nc1ccccc1)c1cc2ccccc2c2c1[O][Fe]1([O]c3ccc(Cl)cc3N=N2)[O]c2ccc(Cl)cc2N=Nc2c(c(C(=O)Nc3ccccc3)cc3ccccc23)[O]1 (stereo not shown) [Complex (1)] | SMeOH = 0.87 g/100 ml) |
| Cc1ccccc1NC(=O)c1cc2ccccc2c2c1[O][Fe]1([O]c3ccccc3N=N2)[O]c2ccccc2N=Nc2c(c(C(=O)Nc3ccccc3C)cc3ccccc23)[O]1 (stereo not shown) [Complex (6)] | SMeOH = 0.76 g/100 ml) |
| O=C(Nc1cccc([N+](=O)[O-])c1)c1cc2ccccc2c2c1[O][Fe]1([O]c3c(cc(Cl)cc3[N+](=O)[O-])/N=N/2)[O]c2c(cc(Cl)cc2[N+](=O)[O-])/N=N/c2c(c(C(=O)Nc3cccc([N+](=O)[O-])c3)cc3ccccc23)[O]1 [Complex (4)] | SMeOH = 0.65 g/100 ml) |
| O=C(Nc1cccc([N+](=O)[O-])c1)c1cc2ccccc2c2c1[O][Fe]1([O]c3ccc(Cl)cc3/N=N/2)[O]c2ccc(Cl)cc2/N=N/c2c(c(C(=O)Nc3cccc([N+](=O)[O-])c3)cc3ccccc23)[O]1 [Complex (3)] | SMeOH = 0.71 g/100 ml) |
| O=C(Nc1ccccc1)c1cc2ccccc2c2c1[O][Fe]1([O]c3c(Cl)cc(Cl)cc3N=N2)[O]c2c(Cl)cc(Cl)cc2N=Nc2c(c(C(=O)Nc3ccccc3)cc3ccccc23)[O]1 (stereo not shown) [Complex (2)] | SMeOH = 0.75 g/100 ml) |

Same assay, conditions: stirred 1 hour at 50° C., cooled to room temperature, 0.1 μm-filter, absorbance vs 20 ppm standard, listed as Azo-type iron complex (1)

| Structure (SMILES) | SMeOH (solubility in methanol) [g/100 ml)] |
| --- | --- |
| O=C(Nc1ccccc1)c1cc2ccccc2c2c1[O][Fe]1([O]c3ccc(Cl)cc3N=N2)[O]c2ccc(Cl)cc2N=Nc2c(c(C(=O)Nc3ccccc3)cc3ccccc23)[O]1 (stereo not shown) [Complex (1)] | 0.87 |

Reference: US6365314B1, “Toner for developing electrostatic image, image forming method and process cartridge” (Canon Kabushiki Kaisha, priority 1994, dated 2002)
